Six compounds from patent US20090029966A1, “COMBINATION THERAPY WITH PARP INHIBITORS” (ABBOTT LABORATORIES, priority 2006, published 2009) can be followed below.

The test system of data set [1] is MX-1 breast carcinoma xenograft. The experiment in a line: MX-1 breast carcinoma xenograft, combination with carboplatin. It is filed as in vivo, scid mice. The text has this: The MX-1 breast carcinoma xenograft model in scid mice was used to test the ability of A-861695 to potentiate the efficacy of platinum-based agents. This cell line was derived from a person with a poorly differentiated mammary carcinoma. MX-1 is sensitive to cytotoxic agents. Carboplatin, a second-generation platinum containing anticancer drug, is currently the standard of care for treating lung, ovarian, and head and neck cancers. MX-1 tumors are sensitive to carboplatin. […] Mice were randomized into treatment groups of 8-10 mice per group. […] A-861695 was administered at 25 mg/kg/day s.c., via 14-day osmotic minipumps (OMPs) starting on day 17. Carboplatin was given i.p., on day 20, 24 and 27.

For another data set, the system named is B16F10 murine melanoma. The experiment in a line: B16F10 murine melanoma, combination with TMZ. As to conditions: A-861695 25, 12.5 or 3.1 mg/kg/day p.o. b.i.d. days 1-14 + TMZ 62.5 mg/kg/day p.o. q.d. x5. It is filed as in vivo, C57BL/6 mice. As for the experimental part:
This study was done on mice with B 16F 10 murine melanoma. Mice were divided into six treatment groups with 8-10 mice per group. See figure two for treatment groups. B16F10 cells were injected s.c. into C57BL/6 mice on day 0. Dosing was initiated on day one. A-861695 was administered p.o., b.i.d. on days 1-14. On days 3-7 temozolomide (TMZ) was administered p.o., q.d. (for the groups receiving both TMZ and A-861695, TMZ was given two hours after the A-861695 was administered).

The subject of data set [2] is 9 L orthotopic gliosarcoma. Nature of the data set: 9L orthotopic gliosarcoma, combination with TMZ. Format: in vivo, Fisher 344 rats.
Experimental: Tumor growth was monitored longitudinally using contrast-enhanced magnetic resonance imaging (MRI). Animal survival was evaluated based on humane euthanasia of rats presenting signs of irreversible illness.
The next data set relates to DoHH-2 cells. The experiment in a line: B-cell lymphoma (DoHH-2 cell) flank xenograft. As to conditions: for Mean Tumor Volume Day 27 mm^3 ± SE: ABT-888 25 mg/kg/day PO BID 7 days, Temozolomide 50 mg/kg/day PO QD 5 days, tumor size at start 503 mm^3; for % T/C Day 28 (dosing 11 days): treatment group/corresponding vehicle group x 100.
The test system of data set [3] is intra-cerebellar medulloblastoma xenographs; HSB T-cell ALL; JM1 pre-B ALL; P115 primary AML cells. Nature of the data set: TMZ and ABT-888 combinations in medulloblastoma xenografts and leukemia cells (FIGS. 7-11). As to conditions: differing amounts of TMZ and ABT-888 combinations. It is filed as in vivo, mice.
Data set [4] concerns MX-1 breast carcinoma xenograft. The experiment in a line: MX-1 breast carcinoma xenograft, combination with cisplatin. It is filed as in vivo, nude mice. How it is done: In this study the efficacy of A-861695 in combination with cisplatin was evaluated in the MX-1 breast carcinoma xenograft model in nude mice. Tumors were size-matched to 100 mm^3 on day 16 and PARP inhibitor therapy (p.o., b.i.d. ×8) was initiated the same day. A single dose of cisplatin at 6.0 mg/kg/day was administered i.p. day 18. Data, shown in FIG. 5, are mean±S.E.M. of 9 mice per treatment group.

The test system of the next data set is HCT-116 tumors. Nature of the data set: HCT-116 tumors in nude mice, combination with radiotherapy. It is filed as in vivo. To be noted: 6.25, 12.5 or 25 mg/kg/day i.p. OMP 14 days + radiation 2 Gy/day x 10 doses; compared to radiotherapy or compound alone. How it is done:
This study was done in nude mice bearing HCT-116 tumors in the leg. Three days (−3) prior to the beginning of radiotherapy, mice were implanted i.p with OMPs delivering A-620223 at 0, 6.25, 12.5, or 25 mg/kg/day for 14 days. Starting day 0 mice received radiation treatment (2 Gy/day) for 10 doses alone or in combination with the 3 different doses of 2-(N-propylpiperidin-4-yl)benzimidazole-4-carboxamide.

Data set [5] relates to PC3M-Luc human prostate carcinoma. The experiment in a line: Orthotopic PC3M-Luc human prostate carcinoma model (BLI). Format: in vivo, male SCID-C.B17 mice. To be noted: TMZ 50 mg/kg/day alone or with ABT-888 25 mg/kg/day. As for the experimental part:
Bioluminescent PC-3M-luciferase-C6 osteolytic human prostate cancer cells, constitutively expressing luciferase (Caliper Life Sciences, Hopkinton, Mass.) were orthotopically injected into the prostates of ˜10-week-old male SCID-C.B17 mice (C.B-17/IcrCrl-scid-BR, Charles River Labs). Mice were housed in a facility with constant humidity, temperature and a 12-h light-dark cycle. Mice were anesthetized with intramuscular injections of ketamine (40 mg/kg) and rompum (5 mg/kg) before surgery. The surgical region was shaved and sterilized with iodine and alcohol swabs. A lower midline incision was made to access the prostate. The left lobe of the dorsal prostate was injected with 1×10^6 PC3M-Luc cells (975 photon/second/cell) in 30 μl (1:1 matrigel, Collaborative Biomedical Products, Bedford, Mass.). The peritoneal cavity was closed with 4-0 suture and skin incision was closed with clip.
In vivo bioluminescent image (BLI) was performed with an IVISR Imaging System (Caliper Life Sciences, Hopkinton, Mass.). […] Images and measurements of bioluminescent signals were acquired and analyzed using Living Image® software (Caliper Life Sciences, Hopkinton, Mass.). Uniform region of interests (ROIs) were used across all groups and time points to achieve quantification of bioluminescent signal. […] The mice were then monitored with this system at weekly intervals. […]

Another data set deals with tumor. The experiment in a line: Valproic acid and radiotherapy (FIG. 6). To be noted: single and combined administration of valproic acid and radiotherapy. It is filed as in vivo.
The mark [6] stands for this setting: TMZ 50 PO q.d x 5, ABT-888/TMZ 25/50 mg/kg/day po b.i.d./po q.d., normalized BLI post size match.

Experimental for DoHH-2 cells: Animals were size matched on day 15 to an approximate tumor volume of 503 mm^3.
Group mouse weights were recorded three times a week to monitor for weight loss due to toxicity or excessive tumor burden.

`N.N.O=C([O-])C1(C(=O)[O-])CCC1.[Pt+2]` [carboplatin, reference compound]: the “tumor inhibition as a single agent (FIG. 4)” value in [1] (carboplatin 5, 10, 15 mg/kg/day i.p. day 20, 24, 27) is given as “dose-dependent tumor inhibition”.
As for `C[C@]1(c2nc3c(C(N)=O)cccc3[nH]2)CCCN1` [ABT-888, 2-[(2R)-2-methylpyrrolidin-2-yl]-1H-benzimidazole-4-carboxamide], the “potentiation of TMZ efficacy (FIG. 2)” value in the data set with B16F10 murine melanoma is recorded as “significantly potentates the TMZ efficacy in a dose dependent manner”. Besides, the “tumor volume reduction better than TMZ alone” value in [2] (A-861695 50 mg/kg/day + TMZ 17.5 mg/kg/day, day 14, p<0.005) is 44%. In addition, the “reduction of tumor volume (day 14)” value in data set [2] (A-861695 50 mg/kg/day p.o. b.i.d. in combination with TMZ 17.5 mg/kg/day p.o. q.d., MRI) is on record as 63%. In addition, the animal survival result in data set [2] (A-861695 18 or 50 mg/kg/day with TMZ, p<0.005 Log-rank test) was “significantly prolonged animal survival”. The “Mean Tumor Volume Day 27 mm^3 ± SE” value in the data set with DoHH-2 cells amounted to 2970 ± 410 mm^3. Further, the Observations entry with DoHH-2 cells (toxicity assessment in Scid female mice) was “None”. Besides, the “% T/C Day 28 (dosing 11 days)” value with DoHH-2 cells is 127 (—) %. The “potentiation of carboplatin (tumor volumes, FIG. 4)” value in data set [1] (A-861695 25 mg/kg/day s.c. OMP 14 days + carboplatin 10 and 15 mg/kg/day) is “pronounced potentiation of carboplatin”. Moreover, the “effect on toxicity of TMZ (FIGS. 7-11)” value in data set [3] is reported as “enhancement of toxicity of TMZ”. Moreover, the results for the “cures (no measurable tumors at end of the trial)” value in data set [4] (A-861695 5 mg/kg/day p.o. b.i.d. x8 + cisplatin 6.0 mg/kg/day i.p. day 18), in data set [4] (A-861695 25 mg/kg/day p.o. b.i.d. x8 + cisplatin 6.0 mg/kg/day i.p. day 18) and in data set [4] (A-861695 50 mg/kg/day p.o. b.i.d. x8 + cisplatin 6.0 mg/kg/day i.p. day 18) were 8/9, 8/9 and 6/9, respectively. Also, the “dose at which maximal potentiation of cisplatin was reached” value in data set [4] (dose-response 5, 25, 50 mg/kg/day) stood at 5 mg/kg/day. In addition, the “bioavailability in brain tissue” value (compared to other PARP inhibitors) is “improved bioavailability in brain tissue”. For the same compound, the blood brain barrier entry (rat, in vivo) is “crosses the blood brain barrier”.
With `CCCN1CCC(c2nc3cccc(C(N)=O)c3[nH]2)CC1` [2-(N-propylpiperidin-4-yl)benzimidazole-4-carboxamide], the “reduction of tumor size in combination with radiotherapy (FIG. 1)” value with HCT-116 tumors was “significant improvement in the reduction of tumor size”.
Regarding `Cn1nnc2c(C(N)=O)ncn2c1=O` [TMZ, temozolomide], the “efficacy after second treatment schedule (day 55)” value in data set [5] is recorded as “no efficacy”. Further, in the data set on DoHH-2 cells, the “Mean Tumor Volume Day 27 mm^3 ± SE” value amounted to 2202 ± 253 mm^3 and the “% T/C Day 28 (dosing 11 days)” value is recorded as 94%. Moreover, the “% TGI Day 28 (dosing 11 days)” value in the data set with DoHH-2 cells (tumor growth inhibition vs vehicle) was 6%. In the data set with MDA-231-LN-luc cells (setting [6]), the “Day 12 % Tumor change (BLI)” value amounted to 66 ± 76% and the “Day 30 % Tumor change (BLI)” value was determined as 1217 ± 560%. For the same compound, the “Weight loss (Observations)” value with MDA-231-LN-luc cells (after last dose of 2nd cycle) is greater than 10% after last. For the same compound, the Mortality with MDA-231-LN-luc cells (three cycles of 5 days with 11 days of rest, n=11) is given as 0/11.
For the compound `N.N.[Cl][Pt][Cl]` [cisplatin, reference compound], in data set [4] (cisplatin monotherapy 6.0 mg/kg/day i.p. day 18), the “cures (no measurable tumors at end of the trial)” value is reported as 3/9.
For the compound `CCCC(CCC)C(=O)O` [valproic acid], in the data set with tumor, the “effect on radiotherapy (FIG. 6)” value was “can enhance the effects of radiotherapy”.
